PubChem BioAssay (NCI)
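The concentration for 50% growth inhibition is given as GI50. TGI is the concentration that stops growth completely.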

How the values were obtained:
Assay in all cases: NCI-60 cell line screen, 384-well format
MDA-MB-231 breast = system: MDA-MB-231 breast
OVCAR-8 ovarian = system: OVCAR-8 ovarian
SNB-19 CNS = system: SNB-19 CNS
NCI-H460 NSCLC = system: NCI-H460 NSCLC
KM12 colon = system: KM12 colon
HOP-62 NSCLC = system: HOP-62 NSCLC
MCF7 breast = system: MCF7 breast
MDA-MB-435 melanoma = system: MDA-MB-435 melanoma
M14 melanoma = system: M14 melanoma
HL-60(TB) leukemia = system: HL-60(TB) leukemia
SK-OV-3 ovarian = system: SK-OV-3 ovarian
A549 NSCLC = system: A549 NSCLC
BT-549 breast = system: BT-549 breast
SR leukemia = system: SR leukemia
ACHN renal = system: ACHN renal
COLO 205 colon = system: COLO 205 colon
MALME-3M melanoma = system: MALME-3M melanoma
HS 578T breast = system: HS 578T breast
SF-268 CNS = system: SF-268 CNS
IGROV1 ovarian = system: IGROV1 ovarian
DU-145 prostate = system: DU-145 prostate
SN12C renal = system: SN12C renal
SK-MEL-5 melanoma = system: SK-MEL-5 melanoma
UACC-62 melanoma = system: UACC-62 melanoma
NCI-H226 lung = system: NCI-H226 lung
SK-MEL-28 melanoma = system: SK-MEL-28 melanoma
EKVX NSCLC = system: EKVX NSCLC
SF-295 CNS = system: SF-295 CNS
HT29 colon = system: HT29 colon
PC-3 prostate = system: PC-3 prostate
OVCAR-4 ovarian = system: OVCAR-4 ovarian
CAKI-1 renal = system: CAKI-1 renal
NCI-H322M lung = system: NCI-H322M lung
SK-MEL-2 melanoma = system: SK-MEL-2 melanoma
SF-539 CNS = system: SF-539 CNS
NCI-H522 lung = system: NCI-H522 lung
CCRF-CEM leukemia = system: CCRF-CEM leukemia
UACC-257 melanoma = system: UACC-257 melanoma
SW-620 colon = system: SW-620 colon
RXF 393 renal = system: RXF 393 renal
786-0 renal = system: 786-0 renal
NCI/ADR-RES ovarian = system: NCI/ADR-RES ovarian
TK-10 renal = system: TK-10 renal
U251 glioblastoma = system: U251 glioblastoma
A498 renal = system: A498 renal
HOP-92 NSCLC = system: HOP-92 NSCLC
T-47D breast = system: T-47D breast
OVCAR-3 ovarian = system: OVCAR-3 ovarian
MDA-MB-468 breast = system: MDA-MB-468 breast
NCI-H23 lung = system: NCI-H23 lung
HCC-2998 colon = system: HCC-2998 colon
SNB-75 CNS = system: SNB-75 CNS
MOLT-4 leukemia = system: MOLT-4 leukemia
OVCAR-5 ovarian = system: OVCAR-5 ovarian
RPMI-8226 leukemia = system: RPMI-8226 leukemia
HCT-15 colon = system: HCT-15 colon

O=P(O)(O)C(O)(Cn1ccnc1)P(=O)(O)O
GI50 (MDA-MB-231 breast): > 100 µM
TGI (MDA-MB-231 breast): > 100 µM
GI50 (OVCAR-8 ovarian): > 100 µM
TGI (OVCAR-8 ovarian): > 100 µM
GI50 (SNB-19 CNS): > 100 µM
TGI (SNB-19 CNS): > 100 µM
GI50 (NCI-H460 NSCLC): > 100 µM
TGI (NCI-H460 NSCLC): > 100 µM
GI50 (KM12 colon): > 100 µM
TGI (KM12 colon): > 100 µM
GI50 (HOP-62 NSCLC): > 100 µM
TGI (HOP-62 NSCLC): > 100 µM
GI50 (MCF7 breast): > 100 µM
TGI (MCF7 breast): > 100 µM
GI50 (MDA-MB-435 melanoma): > 100 µM
TGI (MDA-MB-435 melanoma): > 100 µM
GI50 (M14 melanoma): > 100 µM
TGI (M14 melanoma): > 100 µM
GI50 (HL-60(TB) leukemia): > 100 µM
TGI (HL-60(TB) leukemia): > 100 µM
GI50 (SK-OV-3 ovarian): > 100 µM
TGI (SK-OV-3 ovarian): > 100 µM
GI50 (A549 NSCLC): > 100 µM
TGI (A549 NSCLC): > 100 µM
GI50 (BT-549 breast): > 100 µM
TGI (BT-549 breast): > 100 µM
GI50 (SR leukemia): > 100 µM
TGI (SR leukemia): > 100 µM
GI50 (ACHN renal): > 100 µM
TGI (ACHN renal): > 100 µM
GI50 (COLO 205 colon): > 100 µM
TGI (COLO 205 colon): > 100 µM
GI50 (MALME-3M melanoma): > 100 µM
TGI (MALME-3M melanoma): > 100 µM
GI50 (HS 578T breast): > 100 µM
TGI (HS 578T breast): > 100 µM
GI50 (SF-268 CNS): > 100 µM
TGI (SF-268 CNS): > 100 µM
GI50 (IGROV1 ovarian): > 100 µM
TGI (IGROV1 ovarian): > 100 µM
GI50 (DU-145 prostate): > 100 µM
TGI (DU-145 prostate): > 100 µM
GI50 (SN12C renal): > 100 µM
TGI (SN12C renal): > 100 µM
GI50 (SK-MEL-5 melanoma): > 100 µM
TGI (SK-MEL-5 melanoma): > 100 µM
GI50 (UACC-62 melanoma): > 100 µM
TGI (UACC-62 melanoma): > 100 µM
GI50 (NCI-H226 lung): > 100 µM
TGI (NCI-H226 lung): > 100 µM
GI50 (SK-MEL-28 melanoma): > 100 µM
TGI (SK-MEL-28 melanoma): > 100 µM
GI50 (EKVX NSCLC): > 100 µM
TGI (EKVX NSCLC): > 100 µM
GI50 (SF-295 CNS): > 100 µM
TGI (SF-295 CNS): > 100 µM
GI50 (HT29 colon): > 100 µM
TGI (HT29 colon): > 100 µM
GI50 (PC-3 prostate): > 100 µM
TGI (PC-3 prostate): > 100 µM
GI50 (OVCAR-4 ovarian): > 100 µM
TGI (OVCAR-4 ovarian): > 100 µM
GI50 (CAKI-1 renal): > 100 µM
TGI (CAKI-1 renal): > 100 µM
GI50 (NCI-H322M lung): > 100 µM
TGI (NCI-H322M lung): > 100 µM
GI50 (SK-MEL-2 melanoma): > 100 µM
TGI (SK-MEL-2 melanoma): > 100 µM
GI50 (SF-539 CNS): > 100 µM
TGI (SF-539 CNS): > 100 µM
GI50 (NCI-H522 lung): > 100 µM
TGI (NCI-H522 lung): > 100 µM
GI50 (CCRF-CEM leukemia): > 100 µM
TGI (CCRF-CEM leukemia): > 100 µM
GI50 (UACC-257 melanoma): > 100 µM
TGI (UACC-257 melanoma): > 100 µM
GI50 (SW-620 colon): > 100 µM
TGI (SW-620 colon): > 100 µM
GI50 (RXF 393 renal): > 100 µM
TGI (RXF 393 renal): > 100 µM
GI50 (786-0 renal): > 100 µM
TGI (786-0 renal): > 100 µM
GI50 (NCI/ADR-RES ovarian): > 100 µM
TGI (NCI/ADR-RES ovarian): > 100 µM
GI50 (TK-10 renal): > 100 µM
TGI (TK-10 renal): > 100 µM
GI50 (U251 glioblastoma): > 100 µM
TGI (U251 glioblastoma): > 100 µM
GI50 (A498 renal): > 100 µM
TGI (A498 renal): > 100 µM
GI50 (HOP-92 NSCLC): > 100 µM
TGI (HOP-92 NSCLC): > 100 µM
GI50 (T-47D breast): > 100 µM
TGI (T-47D breast): > 100 µM
GI50 (OVCAR-3 ovarian): > 100 µM
TGI (OVCAR-3 ovarian): > 100 µM
GI50 (MDA-MB-468 breast): > 100 µM
TGI (MDA-MB-468 breast): > 100 µM
GI50 (NCI-H23 lung): > 100 µM
TGI (NCI-H23 lung): > 100 µM
GI50 (HCC-2998 colon): > 100 µM
TGI (HCC-2998 colon): > 100 µM
GI50 (SNB-75 CNS): > 100 µM
TGI (SNB-75 CNS): > 100 µM
GI50 (MOLT-4 leukemia): > 100 µM
TGI (MOLT-4 leukemia): > 100 µM
GI50 (OVCAR-5 ovarian): > 100 µM
TGI (OVCAR-5 ovarian): > 100 µM
GI50 (RPMI-8226 leukemia): > 100 µM
TGI (RPMI-8226 leukemia): > 100 µM
GI50 (HCT-15 colon): > 100 µM
TGI (HCT-15 colon): > 100 µM
